{"source": "patent US20150374646A1", "about": "“TREATMENT OF CANCER AND OTHER CONDITIONS USING A TRANSCRIPTION FACTOR MODULATOR” (C & C BIOPHARMA, LLC, priority 2013, published 2015)", "assay_in_all_cases": "Cancer cell line growth inhibition, CellTiter-Glo (Example 3)", "type_in_all_cases": "cell-based", "key": {"786-0": {"test_system": "786-0", "conditions": "Homo sapiens, Renal, 72 hours, read-out: growth inhibition of various human cancer cell lines", "experimental": "(§1) YT30 was tested for growth inhibition against 67 human cancer cell lines derived from diverse tissues including the National Cancer Institute human cancer cell lines (NCI-60). […] Cells in different wells were treated with various concentrations of YT30, YT86, YT88, or YT128. […] Cell viabilities were determined by the CellTiter-Glo Luminescence Cell Viability assay kit (Promega Corporation, Madison, Wis.) according to manufacturer's protocol."}, "A498": {"test_system": "A498", "conditions": "Homo sapiens, Renal, 72 hours, read-out: growth inhibition of various human cancer cell lines", "experimental": "as §1"}, "BT-549": {"test_system": "BT-549", "conditions": "Homo sapiens, Breast, 72 hours, read-out: growth inhibition of various human cancer cell lines", "experimental": "as §1"}, "CCRF-CEM": {"test_system": "CCRF-CEM", "conditions": "Homo sapiens, Leukemia, 72 hours, read-out: growth inhibition of various human cancer cell lines", "experimental": "as §1"}, "Caski": {"test_system": "Caski", "conditions": "Homo sapiens, Ca-Ski, Cervical, 72 hours, read-out: growth inhibition of various human cancer cell lines", "experimental": "as §1"}, "DU-145": {"test_system": "DU-145", "conditions": "Homo sapiens, Prostate, 72 hours, read-out: growth inhibition of various human cancer cell lines", "experimental": "as §1"}, "HL60": {"test_system": "HL60", "conditions": "Homo sapiens, HL-60, Leukemia, 72 hours, read-out: growth inhibition of various human cancer cell lines", "experimental": "as §1"}, "HS 578T": {"test_system": "HS 578T", "conditions": "Homo sapiens, Breast, 72 hours, read-out: growth inhibition of various human cancer cell lines", "experimental": "as §1"}, "HeLa": {"test_system": "HeLa", "conditions": "Homo sapiens, Cervical, 72 hours, read-out: growth inhibition of various human cancer cell lines", "experimental": "as §1"}, "K562": {"test_system": "K562", "conditions": "Homo sapiens, Leukemia, 72 hours, read-out: growth inhibition of various human cancer cell lines", "experimental": "as §1"}, "MCF7": {"test_system": "MCF7", "conditions": "Homo sapiens, Breast, MCF-7, 72 hours, read-out: growth inhibition of various human cancer cell lines", "experimental": "as §1"}, "MDA-MB-435": {"test_system": "MDA-MB-435", "conditions": "Homo sapiens, Breast, 72 hours, read-out: growth inhibition of various human cancer cell lines", "experimental": "as §1"}, "MDA-MB-468": {"test_system": "MDA-MB-468", "conditions": "Homo sapiens, Breast, 72 hours, read-out: growth inhibition of various human cancer cell lines", "experimental": "as §1"}, "MDA-MB231": {"test_system": "MDA-MB231", "conditions": "Homo sapiens; Breast, MDA-MB-231; 72 hours; read-out: growth inhibition of various human cancer cell lines", "experimental": "as §1"}, "MOLT-4": {"test_system": "MOLT-4", "conditions": "Homo sapiens, Leukemia, 72 hours, read-out: growth inhibition of various human cancer cell lines", "experimental": "as §1"}, "NCI/ADR-RES": {"test_system": "NCI/ADR-RES", "conditions": "Homo sapiens, Breast, 72 hours, read-out: growth inhibition of various human cancer cell lines", "experimental": "as §1"}, "OVCAR-3": {"test_system": "OVCAR-3", "conditions": "Homo sapiens, Ovarian, 72 hours, read-out: growth inhibition of various human cancer cell lines", "experimental": "as §1"}, "OVCAR-4": {"test_system": "OVCAR-4", "conditions": "Homo sapiens, Ovarian, 72 hours, read-out: growth inhibition of various human cancer cell lines", "experimental": "as §1"}, "OVCAR-5": {"test_system": "OVCAR-5", "conditions": "Homo sapiens, Ovarian, 72 hours, read-out: growth inhibition of various human cancer cell lines", "experimental": "as §1"}, "SF-268": {"test_system": "SF-268", "conditions": "Homo sapiens, CNS, 72 hours, read-out: growth inhibition of various human cancer cell lines", "experimental": "as §1"}, "SF-295": {"test_system": "SF-295", "conditions": "Homo sapiens, CNS, 72 hours, read-out: growth inhibition of various human cancer cell lines", "experimental": "as §1"}, "SF-539": {"test_system": "SF-539", "conditions": "Homo sapiens, CNS, 72 hours, read-out: growth inhibition of various human cancer cell lines", "experimental": "as §1"}, "SN12C": {"test_system": "SN12C", "conditions": "Homo sapiens, Renal, 72 hours, read-out: growth inhibition of various human cancer cell lines", "experimental": "as §1"}, "SNB-19": {"test_system": "SNB-19", "conditions": "Homo sapiens, CNS, 72 hours, read-out: growth inhibition of various human cancer cell lines", "experimental": "as §1"}, "SNB-75": {"test_system": "SNB-75", "conditions": "Homo sapiens, CNS, 72 hours, read-out: growth inhibition of various human cancer cell lines", "experimental": "as §1"}, "SR": {"test_system": "SR", "conditions": "Homo sapiens, Leukemia, 72 hours, read-out: growth inhibition of various human cancer cell lines", "experimental": "as §1"}, "T-47D": {"test_system": "T-47D", "conditions": "Homo sapiens, T47D, Breast, 72 hours, read-out: growth inhibition of various human cancer cell lines", "experimental": "as §1"}, "TK-10": {"test_system": "TK-10", "conditions": "Homo sapiens, Renal, 72 hours, read-out: growth inhibition of various human cancer cell lines", "experimental": "as §1"}, "U251": {"test_system": "U251", "conditions": "Homo sapiens, U-251, CNS, 72 hours, read-out: growth inhibition of various human cancer cell lines", "experimental": "as §1"}, "UO-31": {"test_system": "UO-31", "conditions": "Homo sapiens, Renal, 72 hours, read-out: growth inhibition of various human cancer cell lines", "experimental": "as §1"}, "siHa": {"test_system": "siHa", "conditions": "Homo sapiens, Cervical, 72 hours, read-out: growth inhibition of various human cancer cell lines", "experimental": "as §1"}}}
{"smiles": "Nc1ccccc1NC(=O)CCCCCNC(=O)c1ccc(-c2ccccc2)o1", "note": "[YT88]", "values": [{"measurement": "IC50", "setting": "786-0", "result": 13.8, "unit": "µM"}, {"measurement": "IC50", "setting": "A498", "result": 9.54, "unit": "µM"}, {"measurement": "IC50", "setting": "BT-549", "result": 10.6, "unit": "µM"}, {"measurement": "IC50", "setting": "CCRF-CEM", "result": 2.65, "unit": "µM"}, {"measurement": "IC50", "setting": "Caski", "result": 14.2, "unit": "µM"}, {"measurement": "IC50", "setting": "DU-145", "result": 16.2, "unit": "µM"}, {"measurement": "IC50", "setting": "HL60", "result": 6.97, "unit": "µM"}, {"measurement": "IC50", "setting": "HS 578T", "result": 5.67, "unit": "µM"}, {"measurement": "IC50", "setting": "HeLa", "result": 6.02, "unit": "µM"}, {"measurement": "IC50", "setting": "K562", "result": 5.74, "unit": "µM"}, {"measurement": "IC50", "setting": "MCF7", "result": 3.8, "unit": "µM"}, {"measurement": "IC50", "setting": "MDA-MB-435", "result": 7.59, "unit": "µM"}, {"measurement": "IC50", "setting": "MDA-MB-468", "result": 7.42, "unit": "µM"}, {"measurement": "IC50", "setting": "MDA-MB231", "result": 4.28, "unit": "µM"}, {"measurement": "IC50", "setting": "MOLT-4", "result": 3, "unit": "µM"}, {"measurement": "IC50", "setting": "NCI/ADR-RES", "result": 14.2, "unit": "µM"}, {"measurement": "IC50", "setting": "OVCAR-3", "result": 6.57, "unit": "µM"}, {"measurement": "IC50", "setting": "OVCAR-4", "result": 11.9, "unit": "µM"}, {"measurement": "IC50", "setting": "OVCAR-5", "result": 5.66, "unit": "µM"}, {"measurement": "IC50", "setting": "SF-268", "result": 14.4, "unit": "µM"}, {"measurement": "IC50", "setting": "SF-295", "result": 6.83, "unit": "µM"}, {"measurement": "IC50", "setting": "SF-539", "result": 6.91, "unit": "µM"}, {"measurement": "IC50", "setting": "SN12C", "result": 7.25, "unit": "µM"}, {"measurement": "IC50", "setting": "SNB-19", "result": 9.61, "unit": "µM"}, {"measurement": "IC50", "setting": "SNB-75", "result": 11.2, "unit": "µM"}, {"measurement": "IC50", "setting": "SR", "result": 5.89, "unit": "µM"}, {"measurement": "IC50", "setting": "T-47D", "result": 15, "unit": "µM"}, {"measurement": "IC50", "setting": "TK-10", "result": 13.4, "unit": "µM"}, {"measurement": "IC50", "setting": "U251", "result": 4.38, "unit": "µM"}, {"measurement": "IC50", "setting": "UO-31", "result": 9.53, "unit": "µM"}, {"measurement": "IC50", "setting": "siHa", "result": 9.07, "unit": "µM"}]}
